pIC50: −log10 of the molar value.
target: IDH2 R140Q (Homo sapiens (Human), UniProt P48735, R140Q); experiment: IDH2 R140Q enzymatic cofactor depletion assay (diaphorase/resazurin); format: biochemical; conditions: IDH2 R140Q enzyme, one hour preincubation with compound, one hour reaction; read-out: Enz R140Q
Summary of the method: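 Enzyme preincubated with compound 1 h at room temperature, then reaction started with 50 μM NADPH and 6.3 mM α-KG and run 1 h at room temperature. Remaining NADPH measured by diaphorase (36 μg/ml)/resazurin (60 μM) stop mix, fluorescence read at Ex544/Em590 after 1 min.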

IDH2 R140Q, sequence (P48735 40-452 R140Q): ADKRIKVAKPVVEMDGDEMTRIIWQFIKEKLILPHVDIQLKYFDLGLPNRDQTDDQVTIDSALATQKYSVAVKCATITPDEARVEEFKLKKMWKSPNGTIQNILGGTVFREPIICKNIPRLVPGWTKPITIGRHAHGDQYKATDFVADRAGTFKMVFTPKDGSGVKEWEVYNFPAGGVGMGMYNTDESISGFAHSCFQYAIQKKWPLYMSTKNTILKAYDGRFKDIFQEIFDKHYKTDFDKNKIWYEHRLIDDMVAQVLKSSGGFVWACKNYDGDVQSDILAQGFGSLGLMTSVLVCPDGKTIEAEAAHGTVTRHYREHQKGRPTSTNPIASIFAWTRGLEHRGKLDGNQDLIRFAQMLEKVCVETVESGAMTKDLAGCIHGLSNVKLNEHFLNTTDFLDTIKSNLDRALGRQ

Row | Structure (SMILES) | pIC50
1 | CC(C)CNS(=O)(=O)c1ccc(-c2ccsc2)c(NC(=O)Nc2cccc(C(F)(F)F)c2)c1 [Compound 116, N-isobutyl-4-(thiophen-3-yl)-3-(3-(3-(trifluoromethyl)phenyl)ureido)benzenesulfonamide] | 6.00 to 7.00
2 | Cc1ccc(C)c(NC(=O)Nc2cc(S(=O)(=O)Nc3ccccc3)ccc2-c2ccsc2)c1 [Compound 11, 3-(3-(2,5-dimethylphenyl)ureido)-N-phenyl-4-(thiophen-3-yl)benzenesulfonamide] | 6.00 to 7.00
3 | O=C(Nc1cccc(C(F)(F)F)c1)Nc1cc(S(=O)(=O)Nc2ccccc2)ccc1-c1cccc(O)c1 [Compound 50, 3′-hydroxy-N-phenyl-2-(3-(3-(trifluoromethyl)phenyl)ureido)-[1,1′-biphenyl]-4-sulfonamide] | 6.00 to 7.00
4 | Cc1ccc(-c2ccc(S(=O)(=O)Nc3ccccc3)cc2NC(=O)Nc2cccc(C(F)(F)F)c2)cc1 [Compound 62] | 5.00 to 6.00
5 | O=C(Nc1cccc(C(F)(F)F)c1)Nc1cc(S(=O)(=O)NC2CCSCC2)ccc1-c1ccsc1 [Compound 134, N-(tetrahydro-2H-thiopyran-4-yl)-4-(thiophen-3-yl)-3-(3-(3-(trifluoromethyl)phenyl)ureido)benzene sulfonamide] | 6.00 to 7.00
6 | Cc1cccc(C)c1NC(=O)Nc1cc(S(=O)(=O)Nc2ccccc2)ccc1-c1ccsc1 [Compound 15] | 5.00 to 6.00
7 | O=C(Nc1cccc(C(F)(F)F)c1)Nc1cc(S(=O)(=O)NCC2CC2)ccc1-c1ccsc1 [Compound 127, N-(cyclopropylmethyl)-4-(thiophen-3-yl)-3-(3-(3-(trifluoromethyl)phenyl)ureido)benzenesulfonamide] | 6.00 to 7.00
8 | O=C(Nc1cccc(C(F)(F)F)c1)Nc1cc(S(=O)(=O)Nc2ccccc2)ccc1-c1ccccn1 [Compound 109] | 5.00 to 6.00
9 | COCCNS(=O)(=O)c1ccc(-c2ccsc2)c(NC(=O)Nc2cccc(C(F)(F)F)c2)c1 [Compound 121, N-(2-methoxyethyl)-4-(thiophen-3-yl)-3-(3-(3-(trifluoromethyl)phenyl)ureido)benzenesulfonamide] | 6.00 to 7.00
10 | O=C(Nc1cccc(C(F)(F)F)c1)Nc1cc(S(=O)(=O)Nc2cccc(C(F)(F)F)c2)ccc1-c1ccsc1 [Compound 147] | 5.00 to 6.00
11 | CNS(=O)(=O)c1ccc(-c2ccsc2)c(NC(=O)Nc2cccc(C(F)(F)F)c2)c1 [Compound 111, N-methyl-4-(thiophen-3-yl)-3-(3-(3-(trifluoromethyl)phenyl)ureido)benzenesulfonamide] | 6.00 to 7.00
12 | CCn1ccc(NC(=O)Nc2cc(S(=O)(=O)NCC(F)(F)F)ccc2-c2ccccc2)n1 [Compound 93, 2-(3-(1-ethyl-1H-pyrazol-3-yl)ureido)-N-(2,2,2-trifluoroethyl)-[1,1′-biphenyl]-4-sulfonamide] | 6.00 to 7.00

Further lines, results first:

Row | pIC50 | Structure (SMILES)
13 | 5.00 to 6.00 | O=C(Nc1cccc(C(F)(F)F)c1)Nc1cc(S(=O)(=O)NC2CC2)ccc1OCc1ccccc1 [Compound 193]
14 | 5.00 to 6.00 | O=C(Nc1cccc(C(F)(F)F)c1)Nc1cc(S(=O)(=O)Nc2cc[nH]n2)ccc1-c1ccsc1 [Compound 148]
15 | 6.00 to 7.00 | CCOc1ncc(S(=O)(=O)NCC(F)(F)F)cc1NC(=O)Nc1cc(C(F)(F)F)ccn1 [Compound 202, 6-ethoxy-N-(2,2,2-trifluoroethyl)-5-(3-(4-(trifluoromethyl)pyridine-2-yl)ureido)pyridine-3-sulfonamide]
16 | 5.00 to 6.00 | O=C(Nc1ncc(Cl)s1)Nc1cc(S(=O)(=O)NCC(F)(F)F)ccc1C1CCOC1 (stereo not drawn) [Compound 172, 3-(3-(5-chlorothiazol-2-yl)ureido)-4-(tetrahydrofuran-3-yl)-N-(2,2,2-trifluoroethyl)benzene sulfonamide]
17 | 6.00 to 7.00 | O=C(Nc1cccc(Cl)c1)Nc1cc(S(=O)(=O)NCC(F)(F)F)ccc1C1CCCCO1 (stereo not drawn) [Compound 168, 3-(3-(3-chlorophenyl)ureido)-4-(tetrahydro-2H-pyran-2-yl)-N-(2,2,2-trifluoroethyl)benzenesulfonamide]
18 | 5.00 to 6.00 | O=C(Nc1cccc(C(F)(F)F)c1)Nc1cc(S(=O)(=O)N2CCOCC2)ccc1-n1ccnc1 [Compound 346]

— patent publication US10202339B2, “Therapeutic compounds and compositions” (AGIOS PHARMACEUTICALS, INC., priority 2012, dated 2019)
